In brackets after ≈: the same amount, converted by molar mass.
Tests used:
Enterococcus faecium [1] = assay: Antibacterial activity against Enterococcus faecium ATCC 19434; format: functional
Staphylococcus aureus [2] = assay: Antibacterial activity against methicillin resistant Staphylococcus aureus after 20 hrs by NCCLS-based two-fold broth dilution method; format: functional; settings: read-out: MIC
Enterococcus faecalis [3] = assay: Antibacterial activity against t Enterococcus faecalis after 20 hrs by NCCLS-based two-fold broth dilution method; format: functional; settings: read-out: MIC
Haemophilus influenzae [4] = assay: Antibacterial activity against Haemophilus influenzae ATCC 10211; format: functional
Enterococcus faecalis [5] = assay: Antibacterial activity against Enterococcus faecalis ATCC 29212; format: functional
Enterococcus faecalis [6] = assay: Antibacterial activity against t Enterococcus faecalis VRE after 20 hrs by NCCLS-based two-fold broth dilution method; format: functional; settings: read-out: MIC
Haemophilus influenzae [7] = assay: Antibacterial activity against Haemophilus influenzae after 20 hrs by NCCLS-based two-fold broth dilution method; format: functional
Staphylococcus aureus [8] = assay: Antibacterial activity against methicillin susceptible Staphylococcus aureus ATCC 29213; format: functional
Staphylococcus aureus [9] = assay: Antibacterial activity against methicillin susceptible Staphylococcus aureus after 20 hrs by NCCLS-based two-fold broth dilution method; format: functional; settings: read-out: MIC
Staphylococcus aureus [10] = assay: Antibacterial activity against methicillin resistant Staphylococcus aureus SR3637; format: functional
Pseudomonas aeruginosa [11] = assay: Antibacterial activity against Pseudomonas aeruginosa after 20 hrs by NCCLS-based two-fold broth dilution method; format: functional
Enterococcus faecium [12] = assay: Antibacterial activity against Enterococcus faecium SR7917 (VRE); format: functional
Enterococcus faecium [13] = assay: Antibacterial activity against t Enterococcus faecium after 20 hrs by NCCLS-based two-fold broth dilution method; format: functional
Enterococcus faecalis [14] = assay: Antibacterial activity against Enterococcus faecalis SR7914 (VRE); format: functional
Enterococcus faecium [15] = assay: Antibacterial activity against t Enterococcus faecium VRE after 20 hrs by NCCLS-based two-fold broth dilution method; format: functional; settings: read-out: MIC
Pseudomonas aeruginosa [16] = assay: Antibacterial activity against Pseudomonas aeruginosa YY165; format: functional
[17] = test system: Mycobacterium intracellulare; assay: Antibacterial activity against Mycobacterium intracellulare; format: functional
Mycobacterium avium = assay: Antibacterial activity against Mycobacterium avium; format: functional
[18] = test system: Mycobacterium tuberculosis; assay: Antibacterial activity against Mycobacterium tuberculosis; format: functional
[19] = test system: Mycolicibacterium smegmatis; assay: Antibacterial activity against Mycobacterium smegmatis; format: functional
Streptococcus pneumoniae = assay: Antibacterial activity against Streptococcus pneumoniae; format: functional
[20] = target: T1, Phospho-N-acetylmuramoyl-pentapeptide-transferase (Staphylococcus aureus, UniProt P0C1R8); assay: Inhibition of MraY in Staphylococcus aureus
T1 sequence (P0C1R8 whole entry): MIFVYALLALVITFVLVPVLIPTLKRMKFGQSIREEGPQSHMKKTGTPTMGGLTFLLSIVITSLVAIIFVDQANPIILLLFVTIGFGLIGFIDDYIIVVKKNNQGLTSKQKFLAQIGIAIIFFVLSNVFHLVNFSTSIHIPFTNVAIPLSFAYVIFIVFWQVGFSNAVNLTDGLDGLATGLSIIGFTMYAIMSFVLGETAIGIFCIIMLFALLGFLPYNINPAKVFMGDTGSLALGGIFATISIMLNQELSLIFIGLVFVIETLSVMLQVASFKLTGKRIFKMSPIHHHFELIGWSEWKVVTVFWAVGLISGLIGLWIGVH

Escherichia coli [21] = assay: Antibacterial activity against Escherichia coli ATCC 25922; format: functional
Escherichia coli [22] = assay: Antibacterial activity against Escherichia coli after 20 hrs by NCCLS-based two-fold broth dilution method; format: functional
Pseudomonas aeruginosa [23] = assay: Antibacterial activity against Pseudomonas aeruginosa PAO1 deltamexB; format: functional
Acinetobacter baumannii = assay: Antibacterial activity against Acinetobacter baumannii ATCC 19606; format: functional; settings: ATCC 19606 = CIP 70.34 = JCM 6841

CCCCCCCCCCCCCC(=O)N[C@@H]1CCN[C@@H]([C@H](O[C@@H]2O[C@H](CN)[C@@H](O)[C@H]2O)[C@H]2O[C@@H](n3ccc(=O)[nH]c3=O)[C@H](O)[C@@H]2O)C1
MIC (Enterococcus faecium [1]): 16 µg/mL (≈ 23.4 µM)
MIC (Staphylococcus aureus [2]): 32 µg/mL (≈ 46.8 µM)
MIC (Enterococcus faecalis [3]): 2 µg/mL (≈ 2.92 µM)
MIC (Haemophilus influenzae [4]): 32 µg/mL (≈ 46.8 µM)
MIC (Enterococcus faecalis [5]): 2 µg/mL (≈ 2.92 µM)
MIC (Enterococcus faecalis [6]): 2 µg/mL (≈ 2.92 µM)
MIC (Haemophilus influenzae [7]): 32 µg/mL (≈ 46.8 µM)
MIC (Staphylococcus aureus [8]): 16 µg/mL (≈ 23.4 µM)
MIC (Staphylococcus aureus [9]): 16 µg/mL (≈ 23.4 µM)
MIC (Staphylococcus aureus [10]): 32 µg/mL (≈ 46.8 µM)
MIC (Pseudomonas aeruginosa [11]): 32 µg/mL (≈ 46.8 µM)
MIC (Enterococcus faecium [12]): 8 µg/mL (≈ 11.7 µM)
MIC (Enterococcus faecium [13]): 16 µg/mL (≈ 23.4 µM)
MIC (Enterococcus faecalis [14]): 2 µg/mL (≈ 2.92 µM)
MIC (Enterococcus faecium [15]): 8 µg/mL (≈ 11.7 µM)
MIC (Pseudomonas aeruginosa [16]): 32 µg/mL (≈ 46.8 µM)

CCCCCCCCCCCCCCCC(=O)OC[C@H]1[C@@H](C(=O)N(C)C)[C@H]([C@H]2O[C@@H](n3ccc(=O)[nH]c3=O)[C@H](O)[C@@H]2O)ON1CCCN
MIC (Haemophilus influenzae [4]): 1 µg/mL (≈ 1.47 µM)
MIC (Haemophilus influenzae [7]): 1 µg/mL (≈ 1.47 µM)

CCCCCCCCCCCC[C@@H](CC(=O)O[C@H]1CN(C)[C@@H]([C@H](O[C@@H]2O[C@H](CN)[C@@H](O)[C@H]2O)[C@H]2O[C@@H](n3ccc(=O)[nH]c3=O)[C@H](O)[C@@H]2O)C(=O)N(C)[C@@H]1C(=O)O)OC(=O)C[C@H](C)CC(=O)O[C@@H]1O[C@@H](C)[C@H](OC)[C@@H](OC)[C@H]1OC
MIC [17]: 0.78 µg/mL (≈ 0.689 µM)
MIC (Mycobacterium avium): < 0.025 µg/mL
MIC [18]: 0.78 µg/mL (≈ 0.689 µM)
MIC [19]: 0.78 to 1.56 µg/mL (≈ 0.689 to 1.38 µM)

CCCCCCCCCCCCCCCC(=O)N[C@@H]1CCN[C@@H]([C@H](O[C@@H]2O[C@H](CN)[C@@H](O)[C@H]2O)[C@H]2O[C@@H](n3ccc(=O)[nH]c3=O)[C@H](O)[C@@H]2O)C1
MIC (Enterococcus faecium [1]): 8 µg/mL (≈ 11.2 µM)
MIC (Streptococcus pneumoniae): 64 µg/mL (≈ 89.9 µM)
MIC (Staphylococcus aureus [2]): 16 µg/mL (≈ 22.5 µM)
IC50 [20]: 24 µM
MIC (Enterococcus faecalis [3]): 4 µg/mL (≈ 5.62 µM)
MIC (Haemophilus influenzae [4]): 32 µg/mL (≈ 45 µM)
MIC (Enterococcus faecalis [5]): 4 µg/mL (≈ 5.62 µM)
MIC (Enterococcus faecalis [6]): 2 µg/mL (≈ 2.81 µM)
MIC (Haemophilus influenzae [7]): 32 µg/mL (≈ 45 µM)
MIC (Staphylococcus aureus [8]): 8 µg/mL (≈ 11.2 µM)
MIC (Staphylococcus aureus [9]): 8 µg/mL (≈ 11.2 µM)
MIC (Staphylococcus aureus [10]): 16 µg/mL (≈ 22.5 µM)
MIC (Escherichia coli [21]): > 64 µg/mL
MIC (Pseudomonas aeruginosa [11]): 32 µg/mL (≈ 45 µM)
MIC (Enterococcus faecium [12]): 4 µg/mL (≈ 5.62 µM)
MIC (Enterococcus faecium [13]): 2 µg/mL (≈ 2.81 µM)
MIC (Enterococcus faecalis [14]): 2 µg/mL (≈ 2.81 µM)
MIC (Enterococcus faecium [15]): 8 µg/mL (≈ 11.2 µM)
MIC (Escherichia coli [22]): 4 µg/mL (≈ 5.62 µM)
MIC (Pseudomonas aeruginosa [23]): > 64 µg/mL
MIC (Acinetobacter baumannii): > 64 µg/mL
MIC (Pseudomonas aeruginosa [16]): 32 µg/mL (≈ 45 µM)

CC(=O)N[C@@H]1CCN[C@@H]([C@@H](O[C@@H]2O[C@H](CN)[C@@H](O)[C@H]2O)[C@H]2O[C@@H](n3ccc(=O)[nH]c3=O)[C@H](O)[C@@H]2O)C1
MIC (Enterococcus faecium [1]): > 64 µg/mL
MIC (Streptococcus pneumoniae): > 64 µg/mL
IC50 [20]: > 4200 µM
MIC (Haemophilus influenzae [4]): > 64 µg/mL
MIC (Enterococcus faecalis [5]): > 64 µg/mL
MIC (Staphylococcus aureus [8]): > 64 µg/mL
MIC (Staphylococcus aureus [10]): > 64 µg/mL
MIC (Escherichia coli [21]): > 64 µg/mL
MIC (Enterococcus faecium [12]): > 64 µg/mL
MIC (Enterococcus faecalis [14]): > 64 µg/mL
MIC (Pseudomonas aeruginosa [23]): > 64 µg/mL
MIC (Acinetobacter baumannii): > 64 µg/mL
MIC (Pseudomonas aeruginosa [16]): > 64 µg/mL

CCCCCCCCCCCCCCCC(=O)N[C@H]1CCN[C@H]([C@@H](O[C@@H]2O[C@H](CN)[C@@H](O)[C@H]2O)[C@H]2O[C@@H](n3ccc(=O)[nH]c3=O)[C@H](O)[C@@H]2O)C1
MIC (Enterococcus faecium [1]): 32 µg/mL (≈ 45 µM)
MIC (Streptococcus pneumoniae): 64 µg/mL (≈ 89.9 µM)
MIC (Staphylococcus aureus [2]): 16 µg/mL (≈ 22.5 µM)
IC50 [20]: > 2700 µM
MIC (Enterococcus faecalis [3]): 16 µg/mL (≈ 22.5 µM)
MIC (Haemophilus influenzae [4]): > 64 µg/mL
MIC (Enterococcus faecalis [5]): 16 µg/mL (≈ 22.5 µM)
MIC (Enterococcus faecalis [6]): 16 µg/mL (≈ 22.5 µM)
MIC (Staphylococcus aureus [8]): 8 µg/mL (≈ 11.2 µM)
MIC (Staphylococcus aureus [9]): 8 µg/mL (≈ 11.2 µM)
MIC (Staphylococcus aureus [10]): 16 µg/mL (≈ 22.5 µM)
MIC (Escherichia coli [21]): 32 µg/mL (≈ 45 µM)
MIC (Enterococcus faecium [12]): 8 µg/mL (≈ 11.2 µM)
MIC (Enterococcus faecium [13]): 32 µg/mL (≈ 45 µM)
MIC (Enterococcus faecalis [14]): 16 µg/mL (≈ 22.5 µM)
MIC (Enterococcus faecium [15]): 8 µg/mL (≈ 11.2 µM)
MIC (Escherichia coli [22]): 32 µg/mL (≈ 45 µM)
MIC (Pseudomonas aeruginosa [23]): > 64 µg/mL
MIC (Acinetobacter baumannii): > 64 µg/mL
MIC (Pseudomonas aeruginosa [16]): > 64 µg/mL

CCCCCCCCCCC[C@@H](CC(=O)O[C@H]1CN(C)[C@@H]([C@H](O[C@@H]2O[C@H](CN)[C@@H](O)[C@H]2O)[C@H]2O[C@@H](n3ccc(=O)[nH]c3=O)[C@H](O)[C@@H]2O)C(=O)N(C)[C@@H]1C(=O)O)OC(=O)C[C@H](C)CC(=O)O[C@@H]1O[C@@H](C)[C@H](OC)[C@@H](OC)[C@H]1OC
MIC [17]: 0.78 µg/mL (≈ 0.698 µM)
MIC (Mycobacterium avium): < 0.025 µg/mL
MIC [18]: 0.78 µg/mL (≈ 0.698 µM)
MIC [19]: 0.39 to 1.56 µg/mL (≈ 0.349 to 1.4 µM)

CC(=O)N[C@@H]1CCN[C@H]([C@H](O[C@@H]2O[C@H](CN)[C@@H](O)[C@H]2O)[C@H]2O[C@@H](n3ccc(=O)[nH]c3=O)[C@H](O)[C@@H]2O)C1
MIC (Enterococcus faecium [1]): > 64 µg/mL
MIC (Streptococcus pneumoniae): > 64 µg/mL
IC50 [20]: 2600 µM
MIC (Haemophilus influenzae [4]): > 64 µg/mL
MIC (Enterococcus faecalis [5]): > 64 µg/mL
MIC (Staphylococcus aureus [8]): > 64 µg/mL
MIC (Staphylococcus aureus [10]): > 64 µg/mL
MIC (Escherichia coli [21]): > 64 µg/mL
MIC (Enterococcus faecium [12]): > 64 µg/mL
MIC (Enterococcus faecalis [14]): > 64 µg/mL
MIC (Pseudomonas aeruginosa [23]): > 64 µg/mL
MIC (Acinetobacter baumannii): > 64 µg/mL
MIC (Pseudomonas aeruginosa [16]): > 64 µg/mL

CCCCCCCCCCCCCCCC(=O)OC[C@@H]1[C@H](C(N)=O)[C@H]([C@H]2O[C@@H](n3ccc(=O)[nH]c3=O)[C@H](O)[C@@H]2O)ON1CCCN
MIC (Enterococcus faecalis [3]): 16 µg/mL (≈ 24.5 µM)
MIC (Enterococcus faecalis [6]): 4 to 8 µg/mL (≈ 6.12 to 12.2 µM)
MIC (Haemophilus influenzae [7]): 0.25 to 0.5 µg/mL (≈ 0.382 to 0.765 µM)

From ChEMBL document CHEMBL4402510, “Caprazamycins: Promising lead structures acting on a novel antibacterial target MraY” (Eur J Med Chem, 2019)
